# Test results reported in the supplement of paper PMC10307832.
# Assays:
# Assay in all cases: relative viability (nuclei count vs DMSO), 5 days (fraction); higher = more cells survive
# [1] = tested on: LCLC-97TM1
# Method in brief: (§1)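 Each reported value is a median over duplicate plates. It expresses relative viability: treated-well nuclei count divided by vehicle-well nuclei count. Lung cancer cell lines in 1536-well plates were dosed by pin tool a day after seeding, alone with one drug or with a fixed anchor-drug dose plus five library-drug doses (not always all listed) in √10 steps, and nuclei were counted after 5 days.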
# [2] = tested on: HARA
# Method in brief: as §1
# [3] = tested on: EMC-BAC-2
# Method in brief: as §1
# [4] = tested on: NCI-H1915
# Method in brief: as §1
# [5] = tested on: PC-3 [JPC-3]
# Method in brief: as §1
# [6] = tested on: NCI-H23
# Method in brief: as §1
# [7] = tested on: NCI-H1437
# Method in brief: as §1
# [8] = tested on: NCI-H322M
# Method in brief: as §1
# [9] = tested on: NCI-H1793
# Method in brief: as §1
# [10] = tested on: HCC-827
# Method in brief: as §1
# [11] = tested on: EKVX
# Method in brief: as §1
# [12] = tested on: HCC-15
# Method in brief: as §1
# [13] = tested on: NCI-H2126
# Method in brief: as §1
# [14] = tested on: NCI-H1944
# Method in brief: as §1
# [15] = tested on: NCI-H441
# Method in brief: as §1
# [16] = tested on: NCI-H661
# Method in brief: as §1
# [17] = tested on: LU99A
# Method in brief: as §1
# [18] = tested on: LC-2-ad
# Method in brief: as §1
# [19] = tested on: SK-LU-1
# Method in brief: as §1
# [20] = tested on: H3255
# Method in brief: as §1
# [21] = tested on: NCI-H460
# Method in brief: as §1
# [22] = tested on: ChaGo-K-1
# Method in brief: as §1
smiles,measurement,setting,value
O=c1[nH]c2ccccc2n1C1CCN(CCCC(c2ccc(F)cc2)c2ccc(F)cc2)CC1 [Pimozide] + Cc1cc(Nc2cc(N3CCN(C)CC3)nc(Sc3ccc(NC(=O)C4CC4)cc3)n2)n[nH]1 [Tozasertib] (partner 0.1 µM),relative viability,[1]; first compound 0.08 µM,0.265
same,relative viability,[1]; first compound 0.253 µM,0.212
same,relative viability,[1]; first compound 0.8 µM,0.225
same,relative viability,[1]; first compound 2.53 µM,0.173
same,relative viability,[1]; first compound 8 µM,0.193
same,relative viability,[2]; first compound 0.253 µM,0.107
same,relative viability,[2]; first compound 0.8 µM,0.111
same,relative viability,[2]; first compound 2.53 µM,0.0907
same,relative viability,[2]; first compound 8 µM,0.123
same,relative viability,[3]; first compound 0.08 µM,0.292
same,relative viability,[3]; first compound 0.253 µM,0.284
same,relative viability,[3]; first compound 0.8 µM,0.272
same,relative viability,[3]; first compound 2.53 µM,0.225
same,relative viability,[3]; first compound 8 µM,0.297
same,relative viability,[4]; first compound 0.08 µM,0.445
same,relative viability,[4]; first compound 0.253 µM,0.383
same,relative viability,[4]; first compound 0.8 µM,0.332
same,relative viability,[4]; first compound 2.53 µM,0.321
same,relative viability,[4]; first compound 8 µM,0.368
same,relative viability,[5]; first compound 0.08 µM,0.557
same,relative viability,[5]; first compound 0.253 µM,0.875
same,relative viability,[5]; first compound 0.8 µM,0.754
same,relative viability,[5]; first compound 2.53 µM,0.771
same,relative viability,[5]; first compound 8 µM,0.788
same,relative viability,[6]; first compound 0.08 µM,0.386
same,relative viability,[6]; first compound 0.253 µM,0.396
same,relative viability,[6]; first compound 0.8 µM,0.348
same,relative viability,[6]; first compound 2.53 µM,0.336
same,relative viability,[6]; first compound 8 µM,0.314
same,relative viability,[7]; first compound 0.08 µM,0.397
same,relative viability,[7]; first compound 0.253 µM,0.389
same,relative viability,[7]; first compound 0.8 µM,0.35
same,relative viability,[7]; first compound 2.53 µM,0.362
same,relative viability,[7]; first compound 8 µM,0.341
same,relative viability,[8]; first compound 0.253 µM,0.51
same,relative viability,[8]; first compound 0.8 µM,0.523
same,relative viability,[8]; first compound 2.53 µM,0.515
same,relative viability,[8]; first compound 8 µM,0.425
same,relative viability,[9]; first compound 0.253 µM,0.341
same,relative viability,[9]; first compound 0.8 µM,0.439
same,relative viability,[9]; first compound 2.53 µM,0.244
same,relative viability,[9]; first compound 8 µM,0.278
same,relative viability,[10]; first compound 0.253 µM,0.387
same,relative viability,[10]; first compound 0.8 µM,0.368
same,relative viability,[10]; first compound 2.53 µM,0.385
same,relative viability,[10]; first compound 8 µM,0.405
same,relative viability,[11]; first compound 0.08 µM,0.35
same,relative viability,[11]; first compound 0.253 µM,0.321
same,relative viability,[11]; first compound 0.8 µM,0.36
same,relative viability,[11]; first compound 2.53 µM,0.315
same,relative viability,[11]; first compound 8 µM,0.388
same,relative viability,[12]; first compound 0.08 µM,0.403
same,relative viability,[12]; first compound 0.253 µM,0.365
same,relative viability,[12]; first compound 0.8 µM,0.322
same,relative viability,[12]; first compound 2.53 µM,0.292
same,relative viability,[12]; first compound 8 µM,0.201
same,relative viability,[13]; first compound 0.08 µM,0.861
same,relative viability,[13]; first compound 0.253 µM,0.787
same,relative viability,[13]; first compound 0.8 µM,0.756
same,relative viability,[13]; first compound 2.53 µM,0.817
same,relative viability,[13]; first compound 8 µM,0.772
same,relative viability,[14]; first compound 0.08 µM,0.251
same,relative viability,[14]; first compound 0.253 µM,0.241
same,relative viability,[14]; first compound 0.8 µM,0.242
same,relative viability,[14]; first compound 2.53 µM,0.217
same,relative viability,[14]; first compound 8 µM,0.23
same,relative viability,[15]; first compound 0.08 µM,0.655
same,relative viability,[15]; first compound 0.253 µM,0.614
same,relative viability,[15]; first compound 0.8 µM,0.569
same,relative viability,[15]; first compound 2.53 µM,0.546
same,relative viability,[15]; first compound 8 µM,0.618
same,relative viability,[16]; first compound 0.08 µM,0.354
same,relative viability,[16]; first compound 0.253 µM,0.376
same,relative viability,[16]; first compound 0.8 µM,0.339
same,relative viability,[16]; first compound 2.53 µM,0.35
same,relative viability,[16]; first compound 8 µM,0.316
same,relative viability,[17]; first compound 0.08 µM,0.244
same,relative viability,[17]; first compound 0.253 µM,0.277
same,relative viability,[17]; first compound 0.8 µM,0.27
same,relative viability,[17]; first compound 2.53 µM,0.304
same,relative viability,[17]; first compound 8 µM,0.256
same,relative viability,[18]; first compound 0.08 µM,0.442
same,relative viability,[18]; first compound 0.253 µM,0.455
same,relative viability,[18]; first compound 0.8 µM,0.416
same,relative viability,[18]; first compound 2.53 µM,0.385
same,relative viability,[18]; first compound 8 µM,0.35
same,relative viability,[19]; first compound 0.08 µM,0.326
same,relative viability,[19]; first compound 0.253 µM,0.323
same,relative viability,[19]; first compound 0.8 µM,0.328
same,relative viability,[19]; first compound 2.53 µM,0.29
same,relative viability,[19]; first compound 8 µM,0.299
same,relative viability,[20]; first compound 0.253 µM,0.592
same,relative viability,[20]; first compound 0.8 µM,0.47
same,relative viability,[20]; first compound 2.53 µM,0.584
same,relative viability,[20]; first compound 8 µM,0.659
same,relative viability,[21]; first compound 0.08 µM,0.407
same,relative viability,[21]; first compound 0.253 µM,0.314
same,relative viability,[21]; first compound 0.8 µM,0.446
same,relative viability,[21]; first compound 2.53 µM,0.0946
same,relative viability,[21]; first compound 8 µM,0.436
same,relative viability,[22]; first compound 0.08 µM,0.22
same,relative viability,[22]; first compound 0.253 µM,0.235
same,relative viability,[22]; first compound 0.8 µM,0.24
same,relative viability,[22]; first compound 2.53 µM,0.212
same,relative viability,[22]; first compound 8 µM,0.211
